Measurements from patent publication US20260251625A1, “METHOD FOR DETERMINING THE DEGREE OF OXIDATIVE DEGRADATION OF POLYSORBATE 20 IN AQUEOUS FORMULATIONS” (Boehringer Ingelheim International GmbH, priority 2021, published 2026).

Experiment: AAPH-induced oxidative stress of aqueous polysorbate 20 solution, PEG-6-laurate oxidation marker by LC-MS P6L
Assay type: physicochemical
Settings: 1.5 mM AAPH
Procedure: Specifically, oxidative stress is applied to the aqueous polysorbate 20 solution using 1.5 mM 2,2′-azobis-2-methyl-propanimidamide, dihydrochloride (AAPH). The details of the sample preparation are explained in the experimental section under chapter “1.1 Materials”, point “c) Sample preparation of artificially stressed polysorbate 20”.
1.5 mM 2,2′-azobis-2-methyl-propanimidamide, dihydrochloride (AAPH) was added to a 0.040 mg/ml aqueous polysorbate 20 solution. The polysorbate 20 solution was stressed for 40 h at 50° C.
1.5 mM 2,2′-azobis-2-methyl-propanimidamide, dihydrochloride (AAPH) was added to a 0.040 mg/ml aqueous polysorbate 20 solution. The polysorbate 20 solution was stressed for 35 h at 50° C. After 0, 1, 3, 8, 12, 24 and 35 h samples were taken from the solution and immediately frozen at −20° C. in order to stop the degradation at each time point. […]
The separated species were then ionized with heated electrospray ionization (HESI) source (Ion Max Ion source with HESI probe, Thermo Fisher Scientific). […] Ions generated were detected in the mass spectrometer (LTQ, Thermo Fisher Scientific). […] PEG-6-laurate was evaluated by generating extracted ion chromatograms (EIC's) out of the full scan data to get peak areas of selected compounds using LCquan™ (Software for quantitative analysis of liquid chromatography).

polyethylene glycol-6-laurate
increase of peak eluting at about 18.4 min, AAPH-stressed vs unstressed sample (m/z about 227 amu, 40 h at 50° C.): approximately 3.4 fold
relative peak area of polyethylene glycol-6-laurate over stress time (reference T0, 50° C., 0-35 h): increase up to the sampling time point T4 (12 h)
